# From US9708258B2, “Indole 3-carbinol derivatives” (Cadila Pharmaceuticals Ltd, priority 2013, dated 2017)
# System: Carrageenan acute paw edema in Wistar rats
# Test: anti-inflammatory effect in the acute paw edema model (Carrageenan) in Wistar rats
# Format: in vivo
# Conditions: 50 mg/kg oral, basal = 100; for paw volume, Time 1 hr: 1 hr after carrageenan; for paw volume, Time 2 hr: 2 hr after carrageenan; for paw volume, Time 3 hr: 3 hr after carrageenan; for paw volume, Time 4 hr: 4 hr after carrageenan; for paw volume, Time 5 hr: 5 hr after carrageenan; for paw volume, Time 6 hr: 6 hr after carrageenan
# Method: General Procedure for Screening:
# Evaluated the anti-inflammatory effect of compounds of formula-I using acute paw edema model in Wistar rats using the following procedure.
# All animals will be divided into required number of groups (n=6 per group; 8-12 weeks age) on the basis of body weight. After grouping basal paw volume of all animals will be measured with the help of plethysmometer instrument followed by drug administration by oral route. After 1 hr of dosing 100 μL of 1% Carrageenan prepared in normal saline will be administered in hind paw of all animals by S.C route. After 1 hr of carrageenan dosing paw volume of all animals will be measure up to 6 hr at each 1 hr interval.
Structure (SMILES),"paw volume, Time 1 hr","paw volume, Time 2 hr","paw volume, Time 3 hr","paw volume, Time 4 hr","paw volume, Time 5 hr","paw volume, Time 6 hr"
"CCC(=O)OCc1cn(C(=O)OCc2ccccc2)c2ccccc12 [CPL-2013-158, 3-Propionyloxymethyl-indole-1-carboxylic acid benzyl ester]",113.82,115.12,112.02,112.46,108.11,107.2
"CCCCC(=O)OCc1cn(C(=O)OC(C)(C)C)c2ccccc12 [CPL-2012-144, 3-Pentanoyloxymethyl-indole-1-carboxylic acid tert-butyl ester]",112.98,123.96,125.7,123.32,123.07,121.46
"CC(C)(C)OC(=O)n1cc(C(O)c2cc(F)c(F)cc2F)c2ccccc21 (stereo not drawn) [CPL-2013-156, 3-[Hydroxy-(2,4,5-trifluoro-phenyl)-methyl]indole-1-carboxylic acid tert-butyl ester]",115.2,113.62,116.25,115.73,113.69,111.56
"CCC(=O)OCc1cn(C(=O)OC(C)(C)C)c2ccccc12 [CPL-2012-139, 3-Propionyloxymethyl-indole-1-carboxylic acid tert-butyl ester]",116.73,123.68,122.72,120.63,115.55,113.42
"CC(C)(C)OC(=O)n1cc(COC(=O)CCC(=O)O)c2ccccc21 [CPL-2012-136, Succinic acid mono-(1-tert-butoxycarbonyl-1H-indol-3-ylmethyl) ester]",117.26,121.86,123.85,121.57,119.72,111.76
